# Reference: patent US8765940B2 (priority 2009, dated 2014)
# Target: PI3Kδ (Homo sapiens (Human), UniProt O00329)
# Type: biochemical
# Conditions: PI3Kδ Alphascreen assay
# Protocol: A PI3K Alphascreen® assay (PerkinElmer, Waltham, Mass.) was used to measure the activity of a panel of four phosphoinositide 3-kinases: PI3Kα, PI3Kβ, PI3Kγ, and PI3Kδ. Enzyme reaction buffer was prepared using sterile water (Baxter, Deerfield, Ill.) and 50 mM Tris HCl pH 7, 14 mM MgCl2, 2 mM sodium cholate, and 100 mM NaCl. 2 mM DTT was added fresh the day of the experiment. The Alphascreen buffer was made using sterile water and 10 mM Tris HCl pH 7.5, 150 mM NaCl, 0.10% Tween 20, and 30 mM EDTA. 1 mM DTT was added fresh the day of the experiment. Compound source plates used for this assay were 384-well Greiner clear polypropylene plates containing test compounds at 5 mM and diluted 1:2 over 22 concentrations. Columns 23 and 24 contained only DMSO as these wells comprised the positive and negative controls, respectively. Source plates were replicated by transferring 0.5 uL per well into 384-well Optiplates (PerkinElmer, Waltham, Mass.).
# Each PI3K isoform was diluted in enzyme reaction buffer to 2× working stocks. PI3Kα was diluted to 1.6 nM, PI3Kβ was diluted to 0.8 nM, PI3Kγ was diluted to 15 nM, and PI3Kδ was diluted to 1.6 nM. PI(4,5)P2 (Echelon Biosciences, Salt Lake City, Utah) was diluted to 10 μM and ATP was diluted to 20 μM. This 2× stock was used in the assays for PI3Kα and PI3Kβ. For assay of PI3Kγ and PI3Kδ, PI(4,5)P2 was diluted to 10 μM and ATP was diluted to 8 μM to prepare a similar 2× working stock. Alphascreen reaction solutions were made using beads from the anti-GST Alphascreen kit (PerkinElmer, Waltham, Mass.). Two 4× working stocks of the Alphascreen reagents were made in Alphascreen reaction buffer. In one stock, biotinylated-IP4 (Echelon Biosciences, Salt Lake City, Utah) was diluted to 40 nM and streptavadin-donor beads were diluted to 80 μg/mL. In the second stock, PIP3-binding protein (Echelon Biosciences, Salt Lake City, Utah) was diluted to 40 nM and anti-GST-acceptor beads were diluted to 80 μg/mL.
# Using a 384-well Multidrop (Titertek, Huntsville, Ala.), 10 μL/well of 2× enzyme stock was added to columns 1-24 of the assay plates for each isoform. 10 μL/well of the appropriate substrate 2× stock (containing 20 μM ATP for the PI3Kα and β assays and containing 8 μM ATP for the PI3Kγ and δ assays) was then added to Columns 1-24 of all plates. Plates were then incubated at room temperature for 20 minutes. In the dark, 10 μL/well of the donor bead solution was added to columns 1-24 of the plates to quench the enzyme reaction. The plates were incubated at room temperature for 30 minutes. Still in the dark, 10 μL/well of the acceptor bead solution was added to columns 1-24 of the plates. The plates were then incubated in the dark for 1.5 hours. The plates were read on an Envision multimode Plate Reader (PerkinElmer, Waltham, Mass.) using a 680 nm excitation filter and a 520-620 nm emission filter.
# Sequence of PI3Kδ (O00329 whole entry): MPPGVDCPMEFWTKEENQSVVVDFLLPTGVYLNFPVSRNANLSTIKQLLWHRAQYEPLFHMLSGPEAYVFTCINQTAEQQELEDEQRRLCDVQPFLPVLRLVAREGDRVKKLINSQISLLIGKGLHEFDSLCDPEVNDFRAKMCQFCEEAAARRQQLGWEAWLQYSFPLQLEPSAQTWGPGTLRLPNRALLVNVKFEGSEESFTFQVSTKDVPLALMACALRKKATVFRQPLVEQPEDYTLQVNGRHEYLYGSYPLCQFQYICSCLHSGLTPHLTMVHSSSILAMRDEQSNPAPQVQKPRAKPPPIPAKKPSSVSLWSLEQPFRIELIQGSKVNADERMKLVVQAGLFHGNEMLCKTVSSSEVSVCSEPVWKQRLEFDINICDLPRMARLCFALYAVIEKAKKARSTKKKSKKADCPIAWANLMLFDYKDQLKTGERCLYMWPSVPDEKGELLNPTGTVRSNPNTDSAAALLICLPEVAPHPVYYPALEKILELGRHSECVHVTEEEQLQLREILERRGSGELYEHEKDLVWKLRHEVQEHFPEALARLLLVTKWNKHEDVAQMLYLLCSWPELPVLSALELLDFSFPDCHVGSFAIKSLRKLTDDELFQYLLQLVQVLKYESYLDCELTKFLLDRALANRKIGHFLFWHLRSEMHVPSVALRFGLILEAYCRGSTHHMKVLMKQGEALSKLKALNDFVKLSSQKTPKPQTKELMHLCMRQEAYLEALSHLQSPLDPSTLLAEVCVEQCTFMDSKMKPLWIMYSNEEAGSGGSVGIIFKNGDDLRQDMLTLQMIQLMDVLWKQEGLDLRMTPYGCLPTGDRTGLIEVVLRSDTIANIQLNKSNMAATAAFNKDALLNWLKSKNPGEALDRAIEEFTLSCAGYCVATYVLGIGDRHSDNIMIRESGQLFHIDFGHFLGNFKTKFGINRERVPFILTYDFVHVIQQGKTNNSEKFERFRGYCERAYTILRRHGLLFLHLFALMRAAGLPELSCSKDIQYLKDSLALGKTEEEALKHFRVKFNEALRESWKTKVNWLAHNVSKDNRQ
# Sequence of PI3Kδ (P27986 whole entry partner): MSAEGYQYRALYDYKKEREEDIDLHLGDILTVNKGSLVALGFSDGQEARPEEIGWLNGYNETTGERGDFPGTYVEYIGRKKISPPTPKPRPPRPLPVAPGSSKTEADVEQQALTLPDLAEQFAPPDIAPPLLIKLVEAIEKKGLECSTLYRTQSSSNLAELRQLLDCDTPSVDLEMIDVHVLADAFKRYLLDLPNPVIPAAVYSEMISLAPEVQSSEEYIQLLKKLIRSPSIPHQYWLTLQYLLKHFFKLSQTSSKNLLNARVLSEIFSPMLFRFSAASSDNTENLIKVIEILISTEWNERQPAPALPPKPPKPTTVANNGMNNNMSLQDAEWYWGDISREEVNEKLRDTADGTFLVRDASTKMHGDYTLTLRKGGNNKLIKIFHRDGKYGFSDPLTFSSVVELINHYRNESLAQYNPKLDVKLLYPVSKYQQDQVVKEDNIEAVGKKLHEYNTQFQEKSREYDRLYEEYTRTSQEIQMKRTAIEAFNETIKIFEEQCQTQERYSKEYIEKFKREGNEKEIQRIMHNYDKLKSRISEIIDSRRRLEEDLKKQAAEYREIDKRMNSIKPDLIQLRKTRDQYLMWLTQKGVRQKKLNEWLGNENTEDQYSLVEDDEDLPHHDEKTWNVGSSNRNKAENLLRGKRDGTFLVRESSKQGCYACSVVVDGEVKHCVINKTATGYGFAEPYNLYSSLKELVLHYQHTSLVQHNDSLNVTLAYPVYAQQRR
row,Ki [nM],SMILES
1,47.5,"Cc1c(-c2cccnc2)nc2cc(F)ccc2c1N1CC2(CCOCC2)c2ccc(N3CCOCC3)cc21 [1-(7-fluoro-3-methyl-2-(3-pyridinyl)-4-quinolinyl)-6-(4-morpholinyl)-1,2,2′,3′,5′,6′-hexahydrospiro[indole-3,4′-pyran]]"
2,91.3,"Cc1c(-c2ccccc2)nc2ccccc2c1N1CC2(CCOCC2)c2ccc(N3CCOCC3)cc21 [1-(3-methyl-2-phenyl-4-quinolinyl)-6-(4-morpholinyl)-1,2,2′,3′,5′,6′-hexahydrospiro[indole-3,4′-pyran]]"
3,2.36,"Cc1c(N2CCCC2=O)nc2cc(F)cc(F)c2c1N1CC2(CCOCC2)c2ncc(N3CCOCC3)cc21 [1-(5,7-difluoro-3-methyl-4-(6′-(4-morpholinyl)-2,3,5,6-tetrahydrospiro[pyran-4,3′-pyrrolo[3,2-b]pyridin]-1′(2′H)-yl)-2-quinolinyl)-2-pyrrolidinone]"
4,44,"Cc1nc2c(C)cccc2c(N2CC(C)(C)c3ccc(N4CCOCC4)cc32)c1C [4-(3,3-dimethyl-6-(4-morpholinyl)-2,3-dihydro-1H-indol-1-yl)-2,3,8-trimethylquinoline]"
5,883,"Cc1c(-c2ccccn2)nc2ncccc2c1N1CCOc2ccc(N3CCOCC3)cc21 [4-(3-methyl-2-(2-pyridinyl)-1,8-naphthyridin-4-yl)-6-(4-morpholinyl)-3,4-dihydro-2H-1,4-benzoxazine]"
6,154,"Cc1c(-c2ccccn2)nc2cc(F)ccc2c1N1CC(CO)(CO)c2ccc(N3CCOCC3)cc21 [(1-(7-fluoro-3-methyl-2-(2-pyridinyl)-4-quinolinyl)-6-(4-morpholinyl)-2,3-dihydro-1H-indole-3,3-diyl)dimethanol]"
7,351,"Cc1c(-c2ccccn2)nc2cc(F)ccc2c1N1CCOc2ccc(N3CCOCC3)cc21 [4-(7-fluoro-3-methyl-2-(2-pyridinyl)-4-quinolinyl)-6-(4-morpholinyl)-3,4-dihydro-2H-1,4-benzoxazine]"
8,30.7,"Cc1c(-c2ccccn2)nc2cnccc2c1N1CC2(CCOCC2)c2ncc(N3CCOCC3)cc21 [1′-(3-methyl-2-(2-pyridinyl)-1,7-naphthyridin-4-yl)-6′-(4-morpholinyl)-1′,2,2′,3,5,6-hexahydrospiro[pyran-4,3′-pyrrolo[3,2-b]pyridine]]"
9,4.43,"Cc1c(-c2ccccc2S(C)(=O)=O)nc2cc(F)ccc2c1N1CC(C)(C)c2ccc(N3CCOCC3)cc21 [4-(3,3-dimethyl-6-(4-morpholinyl)-2,3-dihydro-1H-indol-1-yl)-7-fluoro-3-methyl-2-(2-(methylsulfonyl)phenyl)quinoline]"
10,12.1,"Cc1cc(C)cc(-c2nc3cc(F)ccc3c(N3CC4(CCOCC4)c4ncc(N5CCOCC5)cc43)c2C)c1 [1′-(2-(3,5-dimethylphenyl)-7-fluoro-3-methyl-4-quinolinyl)-6′-(4-morpholinyl)-1′,2,2′,3,5,6-hexahydrospiro[pyran-4,3′-pyrrolo[3,2-b]pyridine]]"
11,2620,"CC1(C)CN(c2c3c(nc4ccc(Cl)cc24)CCCC3)c2cc(N3CCOCC3)ccc21 [7-chloro-9-(3,3-dimethyl-6-(4-morpholinyl)-2,3-dihydro-1H-indol-1-yl)-1,2,3,4-tetrahydroacridine]"
12,1260,"Cc1nc2ccc(Cl)cc2c(N2CCOc3ccc(N4CCOCC4)cc32)c1C [4-(6-chloro-2,3-dimethyl-4-quinolinyl)-6-(4-morpholinyl)-3,4-dihydro-2H-1,4-benzoxazine]"
13,22.6,"Cc1c(-c2ccccc2)nc2ncccc2c1N1CC2(CCOCC2)c2ncc(N3CCOCC3)cc21 [1′-(3-methyl-2-phenyl-1,8-naphthyridin-4-yl)-6′-(4-morpholinyl)-1′,2,2′,3,5,6-hexahydrospiro[pyran-4,3′-pyrrolo[3,2-b]pyridine]]"
14,654,"Cc1cnc2ccccc2c1N1CC(C)(C)c2ccc(N3CCOCC3)cc21 [4-(3,3-dimethyl-6-(4-morpholinyl)-2,3-dihydro-1H-indol-1-yl)-3-methylquinoline]"
15,4.07,"Cc1ncccc1-c1nc2cc(F)ccc2c(N2CC(C)(C)c3ncc(N4CCOCC4)cc32)c1C [4-(3,3-dimethyl-6-(4-morpholinyl)-2,3-dihydro-1H-pyrrolo[3,2-b]pyridin-1-yl)-7-fluoro-3-methyl-2-(2-methyl-3-pyridinyl)quinoline]"
16,437,"CC1(C)CN(c2c(C#N)c(-c3ccccn3)nc3cc(F)ccc23)c2cc(N3CCOCC3)cnc21 [4-(3,3-dimethyl-6-(4-morpholinyl)-2,3-dihydro-1H-pyrrolo[3,2-b]pyridin-1-yl)-7-fluoro-2-(2-pyridinyl)-3-quinolinecarbonitrile]"
17,154,"Cc1c(-c2cccc(C#N)c2)nc2cc(F)ccc2c1N1CC(C)(C)c2ccc(N3CCOCC3)cc21 [3-(4-(3,3-dimethyl-6-(4-morpholinyl)-2,3-dihydro-1H-indol-1-yl)-7-fluoro-3-methyl-2-quinolinyl)benzonitrile]"
18,65.9,"Cc1c(-c2ccccn2)nc2ncccc2c1N1CC2(CCOCC2)c2ncc(N3CCOCC3)cc21 [1′-(3-methyl-2-(2-pyridinyl)-1,8-naphthyridin-4-yl)-6′-(4-morpholinyl)-1′,2,2′,3,5,6-hexahydrospiro[pyran-4,3′-pyrrolo[3,2-b]pyridine]]"

row,Ki [nM],SMILES
1,7.75,"Cc1c(-c2cncc(F)c2)nc2cnccc2c1N1CC(C)(C)c2ncc(N3CCOCC3)cc21 [4-(3,3-dimethyl-6-(4-morpholinyl)-2,3-dihydro-1H-pyrrolo[3,2-b]pyridin-1-yl)-2-(5-fluoro-3-pyridinyl)-3-methyl-1,7-naphthyridine]"
2,153,"Cc1nc2ccc(Cl)cc2c(-n2ccc3c(C#N)cc(N4CCOCC4)cc32)c1C [1-(6-chloro-2,3-dimethyl-4-quinolinyl)-6-(4-morpholinyl)-1H-indole-4-carbonitrile]"
3,28.2,"Cc1c(-c2cc(F)cc(F)c2)nc2ncccc2c1N1CC2(CCOCC2)c2ncc(N3CCOCC3)cc21 [1′-(2-(3,5-difluorophenyl)-3-methyl-1,8-naphthyridin-4-yl)-6′-(4-morpholinyl)-1′,2,2′,3,5,6-hexahydrospiro[pyran-4,3′-pyrrolo[3,2-b]pyridine]]"
4,772,"CC1(C)CN(c2c3c(nc4ccc(Cl)cc24)CCC3)c2cc(N3CCOCC3)ccc21 [7-chloro-9-(3,3-dimethyl-6-(4-morpholinyl)-2,3-dihydro-1H-indol-1-yl)-2,3-dihydro-1H-cyclopenta[b]quinoline]"
5,80.5,"Cc1c(-c2ccccn2)nc2cc(F)ccc2c1N1CC2(CS(=O)(=O)C2)c2ccc(N3CCOCC3)cc21 [1-(7-fluoro-3-methyl-2-(2-pyridinyl)-4-quinolinyl)-6-(4-morpholinyl)-1,2-dihydrospiro[indole-3,3′-thietane] 1′,1′-dioxide]"
6,5.37,"Cc1ccnc(-c2nc3cnccc3c(N3CC(C)(C)c4ncc(N5CCOCC5)cc43)c2C)c1 [4-(3,3-dimethyl-6-(4-morpholinyl)-2,3-dihydro-1H-pyrrolo[3,2-b]pyridin-1-yl)-3-methyl-2-(4-methyl-2-pyridinyl)-1,7-naphthyridine]"
7,20.3,"Cc1c(-c2cc(F)ccc2F)nc2cc(F)ccc2c1N1CC(C)(C)c2ccc(N3CCOCC3)cc21 [2-(2,5-difluorophenyl)-4-(3,3-dimethyl-6-(4-morpholinyl)-2,3-dihydro-1H-indol-1-yl)-7-fluoro-3-methylquinoline]"
8,5.87,"CC(C)c1c(-c2ccccn2)nc2cc(F)ccc2c1N1CC(C)(C)c2ncc(N3CCOCC3)cc21 [4-(3,3-dimethyl-6-(4-morpholinyl)-2,3-dihydro-1H-pyrrolo[3,2-b]pyridin-1-yl)-7-fluoro-3-(1-methylethyl)-2-(2-pyridinyl)quinoline]"
9,622,"COc1cc2nc(C)c(C)c(N3CC(C)(C)c4ccc(N5CCOCC5)cc43)c2cc1C [4-(3,3-dimethyl-6-(4-morpholinyl)-2,3-dihydro-1H-indol-1-yl)-7-methoxy-2,3,6-trimethylquinoline]"
10,1130,"CCc1c(C)nc2ccc(Cl)cc2c1N1CC(C)(C)c2ccc(N3CCOCC3)cc21 [6-chloro-4-(3,3-dimethyl-6-(4-morpholinyl)-2,3-dihydro-1H-indol-1-yl)-3-ethyl-2-methylquinoline]"
11,3.11,"Cc1c(-c2cc(F)cc(F)c2)nc2ncccc2c1N1CC(C)(C)c2ncc(N3CCOCC3)cc21 [2-(3,5-difluorophenyl)-4-(3,3-dimethyl-6-(4-morpholinyl)-2,3-dihydro-1H-pyrrolo[3,2-b]pyridin-1-yl)-3-methyl-1,8-naphthyridine]"
12,3080,"Cc1c(-c2cc(C(F)(F)F)cc(C(F)(F)F)c2)nc2cc(F)ccc2c1N1CC(C)(C)c2ccc(N3CCOCC3)cc21 [2-(3,5-bis(trifluoromethyl)phenyl)-4-(3,3-dimethyl-6-(4-morpholinyl)-2,3-dihydro-1H-indol-1-yl)-7-fluoro-3-methylquinoline]"
13,21.1,"Cc1c(-c2ccccn2)nc2cc(F)cc(F)c2c1N1CC2(CCOCC2)c2ccc(N3CCOCC3)cc21 [1-(5,7-difluoro-3-methyl-2-(2-pyridinyl)-4-quinolinyl)-6-(4-morpholinyl)-1,2,2′,3′,5′,6′-hexahydrospiro[indole-3,4′-pyran]]"
14,2.36,"Cc1c(-c2cc(F)cc(F)c2)nc2cnccc2c1N1CC(C)(C)c2ncc(N3CCOCC3)cc21 [2-(3,5-difluorophenyl)-4-(3,3-dimethyl-6-(4-morpholinyl)-2,3-dihydro-1H-pyrrolo[3,2-b]pyridin-1-yl)-3-methyl-1,7-naphthyridine]"
15,6.89,"COc1cc(-c2nc3cc(F)cc(F)c3c(N3CC4(CCOCC4)c4ncc(N5CCOCC5)cc43)c2C)ccn1 [1′-(5,7-difluoro-2-(2-methoxy-4-pyridinyl)-3-methyl-4-quinolinyl)-6′-(4-morpholinyl)-1′,2,2′,3,5,6-hexahydrospiro[pyran-4,3′-pyrrolo[3,2-b]pyridine]]"
16,3180,"Cc1cc(Cl)c2nc(C)c(C)c(N3CC(C)(C)c4ccc(N5CCOCC5)cc43)c2c1 [8-chloro-4-(3,3-dimethyl-6-(4-morpholinyl)-2,3-dihydro-1H-indol-1-yl)-2,3,6-trimethylquinoline]"
17,571,"COc1cc2nc(C)c(C)c(N3CC4(CCOCC4)c4ccc(Br)cc43)c2cc1Cl [6-bromo-1-(6-chloro-7-methoxy-2,3-dimethyl-4-quinolinyl)-1,2,2′,3′,5′,6′-hexahydrospiro[indole-3,4′-pyran]]"
